Assay results: US12139555B2, “Peptides and compositions for inhibiting hair growth” (RODAN & FIELDS, LLC, priority 2019, dated 2024)
Ends that are not written are not given here. Peptide text beside a SMILES is read from it.

Key:
Type in all cases: cell-based, human
[1] = tested on: μHF; assay: Cytotoxicity testing on μHF, viability by ATP (CellTiter Glo); conditions: for Mean ATP content in μHF after 24 H treatment: N = 5 μHF, CN 1306.1; for ATP content relative to threshold (50% of negative control): 1-10-100 ng/ml, 24 h
Method: Cytotoxicity testing has been performed on μHF at day 3 in order to select the testing concentration of peptides for the following screening assays.
Treatments: Negative control: 1 (not treated), Positive control: FGF18 100 ng/ml, Treatments: 39 (13 peptides, 3 concentrations each: 1-10-100 ng/ml), Biological replicates: 5 μHF for each treatment, Time-point: 1 (after 24 H of treatment), Read-out parameters: Viability by ATP
The test items have been tested at 3 concentrations/each for their cytotoxicity potential after 24 h exposure on μHF. FGF18 100 ng/ml have been used as positive control. The toxicity has been evaluated by ATP release on n=5 μHF.
The μHF microtissue were reconstructed using the hanging drop method into GRAVITY^PLUS plates from InSphero (Switzerland) using fibroblasts and keratinocytes from human origin. The MTs were Transferred in GRAVITYTRAP for treatments and manipulation. Culture conditions: incubator at 37° C., 5% CO2, saturated humidity with adequate culture medium. The Fibroblast batch and keratinocytes has been tested for the absence of HIV, Hepatitis B, Hepatitis C, Mycoplasma. The maintenance medium has been tested for sterility.
The kit CellTiter Glo® (Promega) Luminescent cell Viability Assay is used for Adenosine-5- triphosphate (ATP) quantification. The assay procedures involves adding the single reagent directly to MTs cultured in medium. The cell lysis and the generation of a luminescent signal is proportional to the amount of ATP present. ATP measurements have been performed on 5 biological replicates and mean and standard deviation have been calculated. The threshold of 50% viability in comparison to negative control have been used as cut off; the max concentration possible over threshold has been used for the efficacy screening test.
For the selection of test concentrations of each peptide, the 50% ATP content in comparison with negative (not treated) control has been selected as threshold. The higher concentration over the selected threshold has been used for efficacy screening test for peptides form P1 to P9.

[2] = tested on: regressive μHF; assay: Overall efficacy in mimicking FGF18 in regressive μHF (CCND1, FGF7, WNT5B together); conditions: FGF18 10-100 ng/ml, after TGFβ1
Description: (§1) To assess the biological activity of the identified set of 13 peptides and their capability to maintain quiescence state, the Vitroscreen μHF standard model has been adapted pushing it in a regressive state (catagen-like) by the application of TGFβ1 to reduce the expression of genes linked to active growth phase (anagen) and to make the model more responsive to FGF18 as quiescence signal.
(§2) In particular, in this regressive model, the application of TGFβ1 to 72H induces a catagen-like status with the down-regulation of FGF7 anagen gene and CCND1 as proliferation marker. […]
The μHF model has been used for a screening study with the aim to characterize the 13 peptides designed on the basis of FGF18 structure in order to mimic its biological function in retarding hair growth. The following test items have been evaluated after the selection of test concentration in a preliminary tox assay.
After the selection of test concentrations of the peptides, efficacy was performed on regressing μHF (TGFβ1 treated) at day 5 in order to evaluate the further efficacy of peptides to decrease the gene expression of proliferation (CCND1) and anagen marker (FGF7). The potential down-regulation of epithelial growth regulator WNT5B has been evaluated as an optional parameter. […]

[3] = tested on: CCND1; assay: Regressive μHF efficacy screening: CCND1 gene expression by RTqPCR
Description: as §1, §2
(§3) After the selection of test concentrations of the peptides, efficacy was performed on regressing μHF (TGFβ1 treated) at day 5 in order to evaluate the further efficacy of peptides to decrease the gene expression of proliferation (CCND1) and anagen marker (FGF7). The potential down-regulation of epithelial growth regulator WNT5B has been evaluated as an optional parameter.
(§4) Treatments: Negative control: 1 (not treated), Regression inducer: TGFβ1 10 ng/ml, Positive control: FGF18 10-100 ng/ml, Treatments: 13 peptides (1 concentration each), Biological replicates: 1 biological replicates from pool of 20 μHF, Time-point: after 72H of TGFβ1 induction followed by 24H of peptide or FGF18 application, Read-out parameters: 1 Proliferation gene (CCND1) by RTqPCR, 2 anagen regulators (FGF7, WNT5B) by RTqPCR […]

[4] = tested on: WNT5B; assay: Regressive μHF efficacy screening: WNT5B gene expression by RTqPCR; conditions: FGF18 100 ng/ml, after TGFβ1 10 ng/ml 72H
Description: as §1, §2, §3, §4

[5] = tested on: FGF7; assay: Regressive μHF efficacy screening: FGF7 gene expression by RTqPCR
Description: as §1, §2, §3, §4

[6] = FGF18 100 ng/ml, after TGFβ1 10 ng/ml 72H

Molecule | Mean ATP content in μHF after 24 H treatment ([1]; 1 ng/ml) [nM] | Mean ATP content in μHF after 24 H treatment ([1]; 10 ng/ml) [nM] | Mean ATP content in μHF after 24 H treatment ([1]; 100 ng/ml) [nM] | further results
CC(C)[C@H](NC(=O)[C@H](CCCNC(=N)N)NC(=O)[C@@H](N)CC(=O)O)C(=O)N[C@@H](CCC(=O)O)C(=O)O [Peptide P10, DRVE] (H-DRVE-OH; N-terminus and C-terminus assumed) | 1727.8 | 1706.1 | 1329.1 | ATP content relative to threshold (50% of negative control) [1]: over the threshold
CC[C@H](C)[C@H](N)C(=O)N[C@@H](CCC(=O)O)C(=O)N[C@@H](CCCCN)C(=O)N[C@H](C(=O)O)C(C)C [Peptide P12, IEKV] (H-IEKV-OH; N-terminus and C-terminus assumed) | 435.7 | 562.8 | 370.0 | ATP content relative to threshold (50% of negative control) [1]: under-threshold
N=C(N)NCCC[C@H](NC(=O)[C@@H](N)CC(=O)O)C(=O)N[C@@H](CC(=O)O)C(=O)N[C@@H](CCC(=O)O)C(=O)O [Peptide P8, DRDE] (H-DRDE-OH; N-terminus and C-terminus assumed) | 1148.5 | 1155.5 | 1229.3 | –
C[C@@H](O)[C@H](NC(=O)[C@H](CCCNC(=N)N)NC(=O)[C@@H](N)CCCCN)C(=O)NCC(=O)O [Peptide P6, KRTG] (H-KRTG-OH; N-terminus and C-terminus assumed) | 1122.0 | 1116.0 | 1313.3 | –
NCCCC[C@H](NC(=O)[C@@H](N)CC(=O)O)C(=O)N[C@@H](CO)C(=O)N[C@@H](CCC(=O)O)C(=O)O [Peptide P9, DKSE] (H-DKSE-OH; N-terminus and C-terminus assumed) | 1521.4 | 1273.6 | 1469.4 | –
Fibroblast Growth Factor 18 [FGF18] | – | – | 1560.3 | Effect in enhancing the down regulation of anagen markers [2]: dose-dependent effect; Effect on CCND1 expression after TGFβ1 [3, 6]: further down-regulation; Effect on WNT5b expression after TGFβ1 [4]: decrease; Effect on FGF7 expression after TGFβ1 [5, 6]: further down-regulation
NCCCC[C@H](NC(=O)[C@@H](N)CCC(=O)O)C(=O)N[C@@H](CC(N)=O)C(=O)N[C@@H](CC(=O)O)C(=O)O [Peptide P7, EKND] (H-EKND-OH; N-terminus and C-terminus assumed) | 1275.4 | 1243.9 | 1258.8 | –
C[C@@H](O)[C@H](NC(=O)[C@H](CCCNC(=N)N)NC(=O)[C@@H](N)CC(=O)O)C(=O)N[C@@H](CC(=O)O)C(=O)O [Peptide P11, DRTD] (H-DRTD-OH; N-terminus and C-terminus assumed) | 463.1 | 447.0 | 149.0 | ATP content relative to threshold (50% of negative control) [1]: under-threshold
CC(C)C[C@H](NC(=O)[C@H](CCCNC(=N)N)NC(=O)[C@@H](N)CC(=O)O)C(=O)N[C@@H](CCCCN)C(=O)O [Peptide P3, DRLK] (H-DRLK-OH; N-terminus and C-terminus assumed) | 1026.2 | 924.8 | 1631.2 | –
C[C@@H](O)[C@H](NC(=O)[C@H](CCCCN)NC(=O)[C@@H](N)CCC(=O)O)C(=O)N[C@@H](CC(=O)O)C(=O)O [Peptide P4, EKTD] (H-EKTD-OH; N-terminus and C-terminus assumed) | 1567.7 | 1715.2 | 1597.4 | –
NCCCC[C@H](NC(=O)[C@@H](N)CCC(=O)O)C(=O)N[C@@H](CC(=O)O)C(=O)N[C@@H](CC(=O)O)C(=O)O [Peptide P5, EKDD] (H-EKDD-OH; N-terminus and C-terminus assumed) | 1263.3 | 1108.9 | 1255.5 | –
CC(C)[C@H](NC(=O)[C@H](CCCNC(=N)N)NC(=O)[C@@H](N)CC(=O)O)C(=O)O [Peptide P13, DRV] (H-Asp-Arg-Val-OH) | 576.0 | 516.6 | 404.1 | ATP content relative to threshold (50% of negative control) [1]: under-threshold
Transforming Growth Factor Beta 1 [TGFβ1] | – | – | – | Effect on expression of CCND1 versus CN ([3]; TGFβ1 10 ng/ml, 72H): reduced; Effect on expression of FGF7 versus CN ([5]; TGFβ1 10 ng/ml, 72H): reduced
CC(C)C[C@H](NC(=O)[C@H](CCC(N)=O)NC(=O)[C@@H](N)CCCCN)C(=O)N[C@@H](CCCNC(=N)N)C(=O)O [Peptide P1, KQLR] (H-KQLR-OH; N-terminus and C-terminus assumed) | 1876.5 | 2007.2 | 1903.1 | –
RTGQYK [Peptide P2, RTGQYK] | 1522.4 | 1838.6 | 1687.8 | –
